Reference: patent US20250011330A1, “Imidazo[1,2- a]pyrazine and Imidazo[1,2- a]pyridine Based Tyrosyl-DNA Phosphodiesterase I (TDP1) Inhibitors” (The USA, As Represented by the Secretary, Department of …, priority 2021, published 2025)
Like-named read-outs stand apart in the source and are kept apart here.

Columns and labels:
[1] = molecular target: TDP1 (Homo sapiens (Human), UniProt Q9NUW8); assay: TDP1 gel-based in vitro fluorescence assay; assay type: biochemical; details: for IC50: Table 10, PROTACs, read-out: TDP1 IC50; for FC (fold change): Table 7, ratio of IC50 TDP2 to TDP1
TDP1, sequence (Q9NUW8 whole entry): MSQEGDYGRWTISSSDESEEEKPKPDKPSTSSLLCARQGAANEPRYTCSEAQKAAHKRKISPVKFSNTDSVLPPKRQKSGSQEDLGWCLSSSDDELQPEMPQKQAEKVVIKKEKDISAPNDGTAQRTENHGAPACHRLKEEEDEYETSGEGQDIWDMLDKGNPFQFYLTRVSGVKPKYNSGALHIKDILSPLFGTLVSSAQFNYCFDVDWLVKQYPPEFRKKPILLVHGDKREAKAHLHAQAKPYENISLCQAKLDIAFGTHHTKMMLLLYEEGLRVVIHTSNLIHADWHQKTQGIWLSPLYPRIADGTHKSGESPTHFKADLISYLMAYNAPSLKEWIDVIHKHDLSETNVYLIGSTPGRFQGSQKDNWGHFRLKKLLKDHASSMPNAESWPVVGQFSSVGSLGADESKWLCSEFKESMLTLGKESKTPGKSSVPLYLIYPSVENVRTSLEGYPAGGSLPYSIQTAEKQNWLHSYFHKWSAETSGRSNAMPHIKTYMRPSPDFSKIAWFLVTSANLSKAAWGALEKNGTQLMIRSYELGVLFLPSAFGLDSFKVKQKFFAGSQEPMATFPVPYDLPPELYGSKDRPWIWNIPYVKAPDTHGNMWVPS
Method: (§1) (TDP assay buffer: 50 mM Tris HCl, pH 7.5, 80 mM KCl, 2 mM EDTA, 1 mM DTT, 40 μg/ml BSA and 0.01% Tween-20. TDP1 (20 mg/mL in 25 mM Tris-HCl pH 7.2, 150 mM NaCl, 2 mM tris(2-carboxyethyl)phosphine) with 2 mL of well solution composed of 0.1 M MOPS/HEPES pH 7.5, 10% (w/v) PEG 8000, 20% (v/v) ethylene glycol, 0.03 M sodium fluoride, 0.03 M sodium bromide, 0.03 M sodium iodide, 0.03 M sodium bromide and sealed over […] well solution. AF647 labelling buffer: Tris-HCl (pH 7.2, 25 mM), NaCl (150 mM), and tris(2-carboxyethyl)phosphine hydrochloride (TCEP, 2 mM).)
(§2) (DNA only: Buffer+DMSO. DMSO only: Enzyme+DMSO. Drug: Enzyme+Drug, 25° C., 10 min+DNA, reaction at 25° C., 15 min.)
Gel images were scanned using a Typhoon FLA 9500 scanner (GE Healthcare) and densitometric analyses were performed using the ImageQuant software (GE Healthcare). The IC50 of TDP1 inhibitors was calculated by comparing the percentage of cleavage product (5′Cy5-[…]-p-3′) to DMSO control.

[2] = molecular target: TDP2 (Homo sapiens (Human), UniProt O95551); assay: gel-based TDP2 fluorescence assay in vitro; assay type: biochemical; details: read-out: TDP2 IC50
TDP2, sequence (O95551 whole entry, species assumed): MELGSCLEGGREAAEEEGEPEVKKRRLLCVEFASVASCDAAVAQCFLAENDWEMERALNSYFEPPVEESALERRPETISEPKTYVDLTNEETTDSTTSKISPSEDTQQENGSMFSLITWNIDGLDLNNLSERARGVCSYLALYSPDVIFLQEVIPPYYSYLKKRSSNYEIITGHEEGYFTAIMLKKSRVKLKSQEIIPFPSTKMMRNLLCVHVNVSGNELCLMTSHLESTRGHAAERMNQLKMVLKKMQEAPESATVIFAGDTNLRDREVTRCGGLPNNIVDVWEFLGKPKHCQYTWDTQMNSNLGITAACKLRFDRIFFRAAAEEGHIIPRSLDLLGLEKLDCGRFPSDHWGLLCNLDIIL
Method: as §1, §2

[3] = Table 7, HPLC-purified oxime leads

IC50 [1]	IC50 ([2]; Table 10, PROTACs)	FC (fold change) [1]	IC50 [2, 3]	SMILES
> 100 µM	> 100 µM			Cc1ncsc1-c1ccc(CNC(=O)[C@@H]2C[C@@H](O)CN2C(=O)[C@@H](NC(=O)COCCOCCOCCOCCn2cc(-c3ccn4c(Nc5ccc(C(=O)O)cc5)c(-c5ccccc5)nc4c3)nn2)C(C)(C)C)cc1 [XZ684, 4-((7-(1-((S)-16-((2S,4R)-4-Hydroxy-2-((4-(4-methylthiazol-5-yl)benzyl)carbamoyl)pyrrolidine-1-carbonyl)-17,17-dimethyl-14-oxo-3,6,9,12-tetraoxa-15-azaoctadecyl)-1H-1,2,3-triazol-4-yl)-2-phenylimidazo[1,2-a]pyridin-3-yl)amino)benzoic acid]
> 100 µM	> 100 µM			O=C(COc1cccc2c1C(=O)N(C1CCC(=O)NC1=O)C2=O)NCCCCn1cc(COc2ccc(-c3nc4ccccn4c3Nc3ccc(C(=O)O)cc3)cc2)nn1 (stereo not shown) [XZ688, 4-((2-(4-((1-(4-(2-((2-(2,6-Dioxopiperidin-3-yl)-1,3-dioxoisoindolin-4-yl)oxy)acetamido)butyl)-1H-1,2,3-triazol-4-yl)methoxy)phenyl)imidazo[1,2-a]pyridin-3-yl)amino)benzoic acid]
		>2	> 100 µM	O=C(O)c1ccc(Nc2c(-c3ccc(CO/N=C/c4ccc(-c5ccccc5)cc4)cc3)nc3cc(-c4ccccc4)ccn23)cc1 [XZ705, (E)-4-((2-(4-(((([1,1′-Biphenyl]-4-ylmethylene)amino)oxy)methyl)phenyl)-7-phenylimidazo[1,2-a]pyridin-3-yl)amino)benzoic acid]

Second part, the compound before the results:

SMILES	IC50 [1]	IC50 ([2]; Table 10, PROTACs)	FC (fold change) [1]	IC50 [2, 3]
Cc1ncsc1-c1ccc(CNC(=O)[C@@H]2C[C@@H](O)CN2C(=O)[C@@H](NC(=O)COCCOCCOCCn2cc(-c3ccn4c(Nc5ccc(C(=O)O)cc5)c(-c5ccccc5)nc4c3)nn2)C(C)(C)C)cc1 [XZ683, 4-((7-(1-((S)-13-((2S,4R)-4-Hydroxy-2-((4-(4-methylthiazol-5-yl)benzyl)carbamoyl)pyrrolidine-1-carbonyl)-14,14-dimethyl-11-oxo-3,6,9-trioxa-12-azapentadecyl)-1H-1,2,3-triazol-4-yl)-2-phenylimidazo[1,2-a]pyridin-3-yl)amino)benzoic acid]	> 100 µM	> 100 µM		
O=C(COc1cccc2c1C(=O)N(C1CCC(=O)NC1=O)C2=O)NCCCCn1cc(-c2ccn3c(Nc4ccc(C(=O)O)cc4)c(-c4ccccc4)nc3c2)nn1 (stereo not shown) [XZ685, 4-((7-(1-(4-(2-((2-(2,6-dioxopiperidin-3-yl)-1,3-dioxoisoindolin-4-yl)oxy)acetamido)butyl)-1H-1,2,3-triazol-4-yl)-2-phenylimidazo[1,2-a]pyridin-3-yl)amino)benzoic acid]	> 100 µM	> 100 µM		
O=C(COc1cccc2c1C(=O)N(C1CCC(=O)NC1=O)C2=O)NCCCCn1cc(COc2ccc(-c3nc4cc(-c5ccccc5)ccn4c3Nc3ccc(C(=O)O)cc3)cc2)nn1 (stereo not shown) [XZ686, 4-((2-(4-((1-(4-(2-((2-(2,6-Dioxopiperidin-3-yl)-1,3-dioxoisoindolin-4-yl)oxy)acetamido)butyl)-1H-1,2,3-triazol-4-yl)methoxy)phenyl)-7-phenylimidazo[1,2-a]pyridin-3-yl)amino)benzoic acid]	> 100 µM	> 100 µM		
O=C(COc1cccc2c1C(=O)N(C1CCC(=O)NC1=O)C2=O)NCCCCn1cc(-c2ccc(-c3nc4ccccn4c3Nc3ccc(C(=O)O)cc3)cc2)nn1 (stereo not shown) [XZ689, 4-((2-(4-(1-(4-(2-((2-(2,6-dioxopiperidin-3-yl)-1,3-dioxoisoindolin-4-yl)oxy)acetamido)butyl)-1H-1,2,3-triazol-4-yl)phenyl)imidazo[1,2-a]pyridin-3-yl)amino)benzoic acid]	> 100 µM	> 100 µM		
Cc1cncc(Oc2ccc(/C=N/OCc3ccc(-c4nc5cc(-c6ccccc6)ccn5c4Nc4ccc(C(=O)O)cc4)cc3)cc2)n1 [XZ704, (E)-4-((2-(4-((((4-((6-methylpyrazin-2-yl)oxy)benzylidene)amino)oxy)methyl)phenyl)-7-phenylimidazo[1,2-a]pyridin-3-yl)amino)benzoic acid]			>1	> 100 µM
